In patent US20120035161A1, “Novel Compositions and Methods of Treating Diseases Using the Same” (CORRIDOR PHARMACEUTICALS, INC., priority 2006, published 2012):

Columns and labels:
TNF-α = assay: Model of LPS-mediated cytokine production, serum TNF-α; assay type: in vivo, CD1:ICR mice; conditions: pre-dose time course, 10 mg/kg, IV or IP
Protocol: (§1) Both ICI-685 and ICI-735 were formulated in water. For the time course study, both drugs were formulated at a concentration of 1 mg/ml and dosed 10 ml/kg to produce a dose of 10 mg/kg. For the dose-response study, drug was formulated at concentrations of 0.05, 0.2 and 0.5 mg/ml and dosed at a volume of 10 ml/kg to produce doses of 0.5, 2 and 5 mg/kg, respectively. Animals were dosed IV or IP.
CD1:ICR mice were obtained from Harlan (Indianapolis, Ind.) at 6 weeks of age. Animals were housed 5 per cage, kept on a 12 hr light dark cycle and fed food and water ad libitum. Animals were tested at 8-10 weeks of age.
(§2) Lipopolysaccharide (heat killed E. coli 0127:B5; Sigma Aldrich) was prepared in distilled water at a concentration of 0.025 mg/ml. LPS was dosed at a volume of 10 ml/kg (IP) to produce a final dose of 0.25 mg/kg (approximately 7.5 μg/mouse). Drugs were dosed prior to LPS administration as indicated elsewhere herein. Blood was collected by retro-orbital eye bleed 90 minutes after LPS administration, Serum was prepared from blood and TNF-α and IL-1β levels were measured by using the OPT-EIA mouse TNF-α and IL-1β ELISA kits (BD Biosciences) as per directions of the manufacturer.
The first study was designed to determine the optimal route of administration and the optimal pre-treatment time. Two pre-dose time course studies were conducted. The first (Study 1A) was conducted with 3 pre-dose time points (2, 6 and 18 hrs). The second was conducted at 0, 1 and 2 hr predose time points. For both studies, drug was dosed IP or IV.
Using data from the first study, a second study was conducted that was designed to measure dose-response activity of each compound. Compounds were tested at doses of […]., 2.0 and 5 mg/kg using the route and pre-treatment time that produced the best activity.
as §1, with “Compounds ICI-715, ICI-824, ICI-953” for “Both ICI-685”, “ICI-954” for “ICI-735”, “study,” for “study, both”, “drugs were” for “drug was”
as §2, with “mg/ml,” for “mg/ml.”, “[…]).” for “μg/mouse).”, “above.” for “elsewhere herein.”, “administration.” for “administration,”
The first study was designed to determine the optimal route of administration and the optimal pre-treatment time. One pre-dose time course was conducted (for all compounds) with compounds administered at 0, 1 and 2 hrs prior to LPS treatment. For both studies, drug was dosed IP or IV. The IP study and IV study were conducted on separate days.
Using data from the first study, a second study was conducted that was designed to measure dose-response activity of each compound. Compounds were tested at doses of 0.5, 2.0 and 5 mg/kg using the route and pre-treatment time that produced the best activity.

[1] = tested on: Monocrotaline model of pulmonary arterial hypertension; assay: Monocrotaline model of pulmonary arterial hypertension (PAH); assay type: in vivo, Sprague-Dawley rats
Protocol: Adult male Sprague-Dawley rats (287±4 g) were obtained from Charles River Laboratories (Raleigh, N.C.). Animals housed individually in a temperature/humidity controlled room with 12-hour light/dark cycles had free access to water and food and were acclimated for one week prior to the study. All experimental protocols were approved by the University of Illinois at Chicago Care and Use Committee, and all experiments were conducted in accordance with the NIH guidelines for animal welfare.
Rats were randomly assigned to one of five experimental groups (n=10 per group). Rats in groups 1 and 2 served as healthy controls; the remaining rats were injected subcutaneously on Day 0 with 60 mg/kg body weight monocrotaline, the toxic alkaloid of C. spectabilis (dissolved in DMSO at a concentration of 60 mg/mL, Sigma Aldrich, St. Louis, Mo.). On days 1-21, rats were dosed via oral gavage (2 mL/kg) with vehicle (PBS), or ICI-735 at 1 mg/kg or 10 mg/kg. Rats were weighed daily, and the dosages were adjusted appropriately. […]
After the lungs were harvested, they were instilled with 10% neutral buffered formalin and immersed in the same fixative. The left and right caudal lung lobes were trimmed to produce six transverse samples per rat and these samples were routinely processed and embedded in paraffin blocks. Sections (approximately 5 μm thick) were stained with Verhoeff's elastin/eosin stain and examined by light microscopy, Histopathological findings were classified as: 1-alveolar inflammation and septal remodeling, 2-perivascular inflammation and edema, 3-perivascular fibrosis, and 4-arteriolar medial hypertrophy. The findings were graded by a pathologist without knowledge of treatment group assignment as 0 (not present), 1 (minimal), 2 (mild), 3 (moderate), or 4 (marked).
The distribution of each finding, if present was classified as multifocal or diffuse. The degree of muscularization of small peripheral pulmonary arteries was assessed by examination of sections immunohistochemically reacted with an anti-alpha-smooth muscle actin antibody (rabbit polyclonal ab5694 diluted 1:100, Abeam, Cambridge, Mass.). […]

[2] = MCT + 1 mg/kg ICI-735, 21 days, n = 10
[3] = MCT + 10 mg/kg ICI-735, 21 days, n = 10
[4] = MCT rats, daily oral 10 mg/kg for 21 days, p<0.05
[5] = SI + 10 mg/kg ICI-735, 21 days, n = 10

NCC(=O)NCCN1CCN(CCCN2c3ccccc3Sc3ccc(C(F)(F)F)cc32)CC1 [ICI-735]
inhibition of LPS-stimulated TNFα secretion (TNF-α): inhibited | physical or behavioral drug-related toxicity, daily clinical evaluation ([1]; 1 or 10 mg/kg oral, 21 days): no evidence | Incidence: Alveolar inflammation/septal remodeling, severity score 1 [1, 2]: 3 | Incidence: Alveolar inflammation/septal remodeling, severity score 2 [1, 2]: 4 | Incidence: Alveolar inflammation/septal remodeling, severity score 3 [1, 2]: 1 | Incidence: Alveolar inflammation/septal remodeling, severity score 4 [1, 2]: 2 | Incidence: Arteriolar medial hypertrophy, severity score 1 [1, 2]: 1 | Incidence: Arteriolar medial hypertrophy, severity score 2 [1, 2]: 6 | Incidence: Arteriolar medial hypertrophy, severity score 3 [1, 2]: 3 | Incidence: Perivascular flbrosis, severity score 0 [1, 2]: 2 | Incidence: Perivascular flbrosis, severity score 1 [1, 2]: 5 | Incidence: Perivascular flbrosis, severity score 2 [1, 2]: 3 | Incidence: Perivascular inflammation/edema, severity score 1 [1, 2]: 4 | Incidence: Perivascular inflammation/edema, severity score 2 [1, 2]: 5 | Incidence: Perivascular inflammation/edema, severity score 3 [1, 2]: 1 | Incidence: Alveolar inflammation/septal remodeling, severity score 1 [1, 3]: 6 | Incidence: Alveolar inflammation/septal remodeling, severity score 2 [1, 3]: 3 | Incidence: Alveolar inflammation/septal remodeling, severity score 3 [1, 3]: 1 | Incidence: Arteriolar medial hypertrophy, severity score 0 [1, 3]: 3 | Incidence: Arteriolar medial hypertrophy, severity score 1 [1, 3]: 5 | Incidence: Arteriolar medial hypertrophy, severity score 2 [1, 3]: 2 | Incidence: Perivascular flbrosis, severity score 0 [1, 3]: 7 | Incidence: Perivascular flbrosis, severity score 1 [1, 3]: 3 | Incidence: Perivascular inflammation/edema, severity score 1 [1, 3]: 8 | Incidence: Perivascular inflammation/edema, severity score 2 [1, 3]: 2 | effects of MCT on PAP, RVSP and RV/BW ([1]; MCT rats, 1 mg/kg): did not attenuate | incidences and severities of perivascular fibrosis and arteriolar medial hypertrophy ([1]; MCT rats, 10 mg/kg): marked decrease | severities of alveolar inflammation and septal remodeling, and perivascular inflammation and edema ([1]; MCT rats, 10 mg/kg, compared to MCT/vehicle): clearly diminished | reduction of MCT-induced elevation of PAP [1, 4]: 75% | reduction of MCT-induced elevation of RV/BW [1, 4]: 81% | reduction of MCT-induced elevation of RVSP [1, 4]: 78% | degree of muscularization of pulmonary arterioles compared with SI/vehicle controls ([1]; MCT rats, high-dose): no significant differences | Incidence: Alveolar inflammation/septal remodeling, severity score 0 [1, 5]: 1 | Incidence: Alveolar inflammation/septal remodeling, severity score 1 [1, 5]: 9 | Incidence: Arteriolar medial hypertrophy, severity score 0 [1, 5]: 10 | Incidence: Perivascular flbrosis, severity score 0 [1, 5]: 10 | Incidence: Perivascular inflammation/edema, severity score 0 [1, 5]: 4 | Incidence: Perivascular inflammation/edema, severity score 1 [1, 5]: 5 | Incidence: Perivascular inflammation/edema, severity score 2 [1, 5]: 1 | changes in PAP, RVSP or RV/BW compared with vehicle controls ([1]; SI rats, 10 mg/kg): no changes | Mean arterial pressure (MAP) compared with controls ([1]; all ICI-735-treated groups): unmodified | heart rate (HR) compared with controls ([1]; all ICI-735-treated groups): unmodified
